According to US20220204539A1, “CD73 INHIBITORS” (BioArdis LLC, priority 2019, published 2022):

Experiments:
[1] = molecular target: T1, Recombinant Human 5′-Nucleotidase (CD73) (Homo sapiens, UniProt P21589); assay: CD73 Enzyme Assay; format: biochemical; conditions: human CD73 0.5 nM, AMP 30 μM, PiColorLock phosphate detection; read-out: Potency (IC50, CD73 enzyme assay)
T1 construct: CHO derived CD73 (Trp27-Lys547), with a C-terminal 6-His tag; 6-His (C); purchased R&D 5795-EN; host or cells: CHO
T1 sequence (P21589 27-547): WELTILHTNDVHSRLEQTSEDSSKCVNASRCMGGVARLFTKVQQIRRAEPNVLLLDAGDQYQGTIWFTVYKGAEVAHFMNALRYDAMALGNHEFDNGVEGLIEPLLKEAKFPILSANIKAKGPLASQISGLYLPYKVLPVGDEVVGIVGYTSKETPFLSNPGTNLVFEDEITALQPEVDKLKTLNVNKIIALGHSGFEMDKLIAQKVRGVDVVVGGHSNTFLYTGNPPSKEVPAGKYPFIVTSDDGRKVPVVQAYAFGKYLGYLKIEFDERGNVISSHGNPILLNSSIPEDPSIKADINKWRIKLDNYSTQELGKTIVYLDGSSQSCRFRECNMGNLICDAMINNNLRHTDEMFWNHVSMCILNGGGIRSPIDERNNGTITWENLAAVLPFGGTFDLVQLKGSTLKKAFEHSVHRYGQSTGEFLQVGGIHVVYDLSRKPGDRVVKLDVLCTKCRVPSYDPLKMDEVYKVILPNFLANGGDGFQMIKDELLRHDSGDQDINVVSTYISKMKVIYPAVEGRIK
In short: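 Human CD73 (CHO-derived Trp27-Lys547, His-tagged; 0.5 nM final) was preincubated with compound for 15 min at 25° C. in Tris pH 7.5 buffer with MgCl2. It then reacted with 30 μM AMP for 20 min at 37° C., and released phosphate was read by malachite green absorbance at 635 nm. IC50 came from four-parameter fits against enzyme and no-enzyme controls.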

[2] = molecular target: T2, Cell surface CD73 of U87 MG human glioblastoma cells (Homo sapiens, UniProt P21589); assay: CD73 Cellular Assay; format: cell-based; conditions: 5000 cells per well, 30 μM AMP substrate, read-out: Potency (IC50, CD73 cellular assay)
T2 construct: Cell surface CD73 catalyzes the conversion of adenosine monophosphate (AMP) to adenosine and inorganic phosphate; endogenous in cells; host or cells: U87 MG human glioblastoma cells
T2 sequence (P21589 27-549): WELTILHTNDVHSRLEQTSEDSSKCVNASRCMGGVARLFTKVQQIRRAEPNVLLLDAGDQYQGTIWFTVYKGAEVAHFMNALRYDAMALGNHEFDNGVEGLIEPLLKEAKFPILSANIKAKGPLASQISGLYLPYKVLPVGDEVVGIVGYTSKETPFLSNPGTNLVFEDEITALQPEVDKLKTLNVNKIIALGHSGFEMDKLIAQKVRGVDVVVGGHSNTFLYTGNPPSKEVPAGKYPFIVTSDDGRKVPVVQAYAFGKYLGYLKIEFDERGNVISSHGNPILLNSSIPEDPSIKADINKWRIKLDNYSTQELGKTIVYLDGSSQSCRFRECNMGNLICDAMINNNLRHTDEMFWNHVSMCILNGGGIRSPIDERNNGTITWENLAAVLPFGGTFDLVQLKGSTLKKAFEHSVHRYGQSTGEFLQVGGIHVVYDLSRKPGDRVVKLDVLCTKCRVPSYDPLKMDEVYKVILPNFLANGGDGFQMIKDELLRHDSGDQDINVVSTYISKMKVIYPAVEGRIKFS
Experimental: Cell surface CD73 catalyzes the conversion of adenosine monophosphate (AMP) to adenosine and inorganic phosphate. U87 MG human glioblastoma cells express high level of CD73. Cells are treated with compounds in a 96-well assay plate and supernatants are collected into a 384-well detection plate. The concentration of inorganic phosphate (Pi) in the supernatants is determined using the phosphate detection reagent, PiColorLock™ (Innova Bioscience, Cat #303-0125) following the manufacturer's instructions.
Briefly, on the day of the assay, U87 MG cells were harvested and resuspended in assay buffer which consisted of 20 mM HEPES, pH=7.4, 137 mM NaCl, 5.4 mM KCl, 1.3 mM CaCl2, 4.2 mM NaHCO3 and 0.1% glucose. To test the effect of compounds on cellular CD73 enzymatic activity, 500 nL/well of compounds dissolved in DMSO were added to a 96-well TC-treated microplate (Corning #3599). Next, 80 μL/well of U87 MG cells in assay buffer were added to assay plate. After 30 minutes of incubation in an atmosphere of 5% CO2 at 37° C., 20 μL/well of 150 μM AMP (Adenosine 5′-monophosphate monohydrate, Sigma, Cat #01930) in assay buffer was added to assay plate. Final assay conditions consisted of 5000 cells per well in 0.5% DMSO and 30 μM AMP substrate. After 50 minutes of incubation in an atmosphere of 5% CO2 at 37° C., 50 μL/well of supernatant was transferred to the 384-well detection plate (Corning® NBS™ 384 well plates, Cat #3640). Meanwhile “Gold mix” was prepared shortly before use by adding 1/100 volume of accelerator to the PiColorLock™ Gold reagent. 12 μL/well of the “Gold mix” was added to detection plate containing 50 μL/well of supernatant and incubated at 25° C. for 5 minutes. 5 μL/well stabilizer was added to the detection plate and incubated at 25° C. for 30 minutes. The absorbance at 635 nm was measured on a Spark 10M instrument (TECAN). The percent (%) inhibition at each concentration of a compound was calculated relative to the OD value in the Max and Min control wells contained within each assay plate. The Max control wells contained cells and substrate as 0% inhibition, and the Min control wells only contained cells as 100% inhibition. The concentrations and percent inhibition values for a test compound are plotted and the concentration of a the compound required to achieve 50% inhibition (IC50) was determined with a four-parameter logistic dose response equation.

Row | Structure (SMILES) | IC50 [1] [nM] | IC50 [2] [nM]
1 | CO[C@H]1CC[C@H](Nc2nc(Cl)nn3c([C@@H]4O[C@H](COP(=O)(O)CP(=O)(O)O)[C@@H](O)[C@H]4O)cnc23)CC1 [Compound 17, (((((2R,3S,4R,1S)-5-(2-chloro-4-(((1r,4S)-4-methoxycyclohexyl)amino)imidazo[2,1-f][1,2,4]triazin-7-yl)-3,4-dihydroxytetrahydrofuran-2-yl)methoxy)(hydroxy)phosphoryl)methyl)phosphonic acid] | < 10 | < 1
2 | O=P(O)(O)CP(=O)(O)OC[C@H]1O[C@@H](c2cnc3c(N4CCc5ccccc5C4)nc(Cl)nn23)[C@H](O)[C@@H]1O [Compound 19, (((((2R,3S,4R,1S)-5-(2-chloro-4-(3,4-dihydroisoquinolin-2(1H)-yl)imidazo[2,1-f][1,2,4]triazin-7-yl)-3,4-dihydroxytetrahydrofuran-2-yl)methoxy)(hydroxy)phosphoryl)methyl)phosphonic Acid] | < 10 | < 1
3 | O=P(O)(O)CP(=O)(O)OC[C@H]1O[C@@H](c2cnc3c(NC4CCCCC4)nc(Cl)nn23)[C@H](O)[C@@H]1O [Compound 20, (((((2R,3S,4R,1S)-5-(2-chloro-4-(cyclohexylamino)imidazo[2,1-f][1,2,4]triazin-7-yl)-3,4-dihydroxytetrahydrofuran-2-yl)methoxy)(hydroxy)phosphoryl)methyl)phosphonic Acid] | < 10 | < 1
4 | O=P(O)(O)CP(=O)(O)OC[C@H]1O[C@@H](c2cnc3c(N[C@H]4CCOC4)nc(Cl)nn23)[C@H](O)[C@@H]1O [Compound 21, [({[(2R,3S,4R,5S)-5-{2-chloro-4-[(3S)-oxolan-3-ylamino]imidazo[2,1-f][1,2,4]triazin-7-yl}-3,4-dihydroxyoxolan-2-yl]methoxy}(hydroxy)phosphoryl)methyl]phosphonic Acid] | < 10 | < 1
5 | O=P(O)(O)CP(=O)(O)OC[C@H]1O[C@@H](c2cnc3c(N[C@@H]4CCOC4)nc(Cl)nn23)[C@H](O)[C@@H]1O [Compound 22, (((((2R,3S,4R,1S)-5-(2-chloro-4-(((R)-tetrahydrofuran-3-yl)amino)imidazo[2,1-f][1,2,4]triazin-7-yl)-3,4-dihydroxytetrahydrofuran-2-yl)methoxy)(hydroxy)phosphoryl)methyl)phosphonic Acid] | < 10 | < 1
6 | COC1CCC(Nc2nc(Cl)nn3c([C@@H]4O[C@H](COP(=O)(O)CP(=O)(O)O)[C@@H](O)[C@H]4O)cnc23)C1 (stereo partly drawn) [Compound 23, (((((2R,3S,4R,1S)-5-(2-chloro-4-((3-methoxycyclopentyl)amino)imidazo[2,1-f][1,2,4]triazin-7-yl)-3,4-dihydroxytetrahydrofuran-2-yl)methoxy)(hydroxy)phosphoryl)methyl)phosphonic acid] | < 10 | < 1
7 | CO[C@H]1CC[C@@H](Nc2nc(Cl)nn3c([C@@H]4O[C@H](COP(=O)(O)CP(=O)(O)O)[C@@H](O)[C@H]4O)cnc23)CC1 [Compound 27, (((((2R,3S,4R,1S)-5-(2-chloro-4-(((1s,4R)-4-methoxycyclohexyl)amino)imidazo[2,1-f][1,2,4]triazin-7-yl)-3,4-dihydroxytetrahydrofuran-2-yl)methoxy)(hydroxy)phosphoryl)methyl)phosphonic Acid] | < 10 | < 1

Continued, values first:

Row | IC50 [1] [nM] | IC50 [2] [nM] | Structure (SMILES)
8 | < 10 | 1 to 9.9 | O=P(O)(O)CP(=O)(O)OC[C@H]1O[C@@H](c2cnc3c(N4CCc5ccccc54)nc(Cl)nn23)[C@H](O)[C@@H]1O [Compound 18, (((((2R,3S,4R,1S)-5-(2-chloro-4-(indolin-1-yl)imidazo[2,1-f][1,2,4]triazin-7-yl)-3,4-dihydroxytetrahydrofuran-2-yl)methoxy)(hydroxy)phosphoryl)methyl)phosphonic Acid]
9 | < 10 | < 1 | O=P(O)(O)CP(=O)(O)OC[C@H]1O[C@@H](c2cnc3c(N4Cc5ccccc5C4)nc(Cl)nn23)[C@H](O)[C@@H]1O [Compound 24, [({[(2R,3S,4R,5S)-5-[2-chloro-4-(1,3-dihydroisoindol-2-yl)imidazo[2,1-f][1,2,4]triazin-7-yl]-3,4-dihydroxyoxolan-2-yl]methoxy}(hydroxy)phosphoryl)methyl]phosphonic acid]
10 | < 10 | < 1 | O=P(O)(O)CP(=O)(O)OC[C@H]1O[C@@H](c2cnc3c(N[C@@H]4CCc5ccccc54)nc(Cl)nn23)[C@H](O)[C@@H]1O [Compound 28, (((((2R,3S,4R,1S)-5-(2-chloro-4-(((R)-2,3-dihydro-1H-inden-1-yl)amino)imidazo[2,1-f][1,2,4]triazin-7-yl)-3,4-dihydroxytetrahydrofuran-2-yl)methoxy)(hydroxy)phosphoryl)methyl)phosphonic Acid]
11 | < 10 | < 1 | CN(c1nc(Cl)nn2c([C@@H]3O[C@H](COP(=O)(O)CP(=O)(O)O)[C@@H](O)[C@H]3O)cnc12)C1CCc2ccccc21 (stereo partly drawn) [Compound 29, (((((2R,3S,4R,1S)-5-(2-chloro-4-(((R)-2,3-dihydro-1H-inden-1-yl)(methyl)amino)imidazo[2,1-f][1,2,4]triazin-7-yl)-3,4-dihydroxytetrahydrofuran-2-yl)methoxy)(hydroxy)phosphoryl)methyl)phosphonic Acid]
12 | < 10 | < 1 | CN(c1nc(Cl)nn2c([C@@H]3O[C@H](COP(=O)(O)CP(=O)(O)O)[C@@H](O)[C@H]3O)cnc12)[C@H]1CCc2ccccc21 [Compound 30, (((((2R,3S,4R,1S)-5-(2-chloro-4-(((S)-2,3-dihydro-1H-inden-1-yl)(methyl)amino)imidazo[2,1-f][1,2,4]triazin-7-yl)-3,4-dihydroxytetrahydrofuran-2-yl)methoxy)(hydroxy)phosphoryl)methyl)phosphonic Acid]
13 | < 10 | < 1 | C[C@H](Nc1nc(Cl)nn2c([C@@H]3O[C@H](COP(=O)(O)CP(=O)(O)O)[C@@H](O)[C@H]3O)cnc12)c1ccccc1F [Compound 32, (((((2R,3S,4R,1S)-5-(2-chloro-4-(((S)-1-(2-fluorophenyl)ethyl)amino)imidazo[2,1-f][1,2,4]triazin-7-yl)-3,4-dihydroxytetrahydrofuran-2-yl)methoxy)(hydroxy)phosphoryl)-methyl)phosphonic Acid]
